From PubChem BioAssay AID588407 (The Scripps Research Institute Molecular Screening Center, 2011)
Several values for one entry are separate records, joined by “and”; a condition that tells them apart may be missing. Equal values may be shown once. Activity calls are given as the source filed them. The rule behind the calls is not given here.

These compounds were tested against Mu-type opioid receptor (Homo sapiens) + Delta-type opioid receptor (Homo sapiens) (UniProt P35372+P41143) (assay: OPRM1-OPRD1 heterodimer agonist potency – cell-based, luminescence, dose response (AID 588407;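 note: potency of agonists raising the heterodimer signal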)). Conditions: cells, MOR-DOR heterodimerization.
Mu-type opioid receptor (Homo sapiens) + Delta-type opioid receptor (Homo sapiens), sequence (P35372 whole entry, looked up): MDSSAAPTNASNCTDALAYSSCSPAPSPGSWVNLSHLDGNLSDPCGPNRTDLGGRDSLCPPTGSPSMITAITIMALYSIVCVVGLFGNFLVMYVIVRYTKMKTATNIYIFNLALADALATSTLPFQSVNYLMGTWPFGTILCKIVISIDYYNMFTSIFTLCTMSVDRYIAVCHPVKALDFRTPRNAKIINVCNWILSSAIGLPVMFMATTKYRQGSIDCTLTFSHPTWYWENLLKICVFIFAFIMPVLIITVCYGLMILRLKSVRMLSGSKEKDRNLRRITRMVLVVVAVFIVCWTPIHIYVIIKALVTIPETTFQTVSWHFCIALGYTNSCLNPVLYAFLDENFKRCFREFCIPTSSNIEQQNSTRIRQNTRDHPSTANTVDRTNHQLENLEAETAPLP
Mu-type opioid receptor (Homo sapiens) + Delta-type opioid receptor (Homo sapiens), sequence (P41143 whole entry, looked up): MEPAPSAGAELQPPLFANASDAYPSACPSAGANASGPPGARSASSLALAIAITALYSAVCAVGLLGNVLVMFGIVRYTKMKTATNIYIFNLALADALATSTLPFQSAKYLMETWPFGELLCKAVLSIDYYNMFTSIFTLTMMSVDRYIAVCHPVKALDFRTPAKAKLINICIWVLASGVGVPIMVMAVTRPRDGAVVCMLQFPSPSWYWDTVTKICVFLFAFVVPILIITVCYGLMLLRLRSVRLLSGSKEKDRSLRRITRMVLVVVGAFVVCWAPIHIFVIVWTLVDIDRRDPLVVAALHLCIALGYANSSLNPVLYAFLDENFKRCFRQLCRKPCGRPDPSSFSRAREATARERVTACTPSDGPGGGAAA
In the case of `C/C(=N/Nc1ccnc2cc(Cl)ccc12)c1ccc(N)cc1`, the EC50 is reported as “inactive”.
`CC(=O)C1CCC2C3CC=C4CC(SC(=N)N)CCC4(C)C3CCC12C` (stereo unspecified) was tested, and the EC50 was 9.58 µM.
Compound `Cc1ccc(C2(O)CN(c3ccccc3C)C3=[N+]2CCS3)cc1` (stereo unspecified) has an EC50 of 0.381 µM.
`CN(C)C(CNC(=S)Nc1cccc(Cl)c1)c1ccccc1` (stereo unspecified) gave an EC50 of 0.375 µM.
In the case of `CCc1ccc2nc(N(CCCN(C)C)C(=O)c3ccc(S(=O)(=O)N(C)C4CCCCC4)cc3)sc2c1`, the EC50 is reported as “inactive”.
`Cc1ccccc1OCC(O)Cn1c(=N)n(Cc2ccccc2)c2ccccc21` (stereo unspecified) was tested, and the EC50 was “inactive”.
For `COc1ccc(CN2CCc3c([nH]c4ccccc34)C2)c(OC)c1C`, the EC50 was “inactive”.
`COC(=O)NCC(c1ccc2c(c1)OCO2)N1CCN(c2ccccc2)CC1` (stereo unspecified) showed an EC50 of 1.25 µM.
Work on `COc1ccc(C(CNc2ncnc3sc(C)c(C)c23)N(C)C)cc1` (stereo unspecified) yielded an EC50 of 6.83 µM.
`CCN(CC)Cc1cc(Nc2c3ccccc3nc3c4ccccc4n(C)c23)cc(CN(CC)CC)c1O` showed an EC50 of 1.78 µM.
In the case of `CCC(=O)OC1(c2cccc(C)c2)CC(C)N(C)CC1C` (stereo unspecified), the EC50 is reported as “inactive”.
`CCc1ccc(Nc2n[n+](-c3ccccc3)c(-c3c(Cl)cccc3Cl)s2)cc1` was tested, and the EC50 was 9.08 µM.
With `OCC1(CC2CCCCO2)CCN(Cc2ccccc2-c2ccco2)CC1` (stereo unspecified) the EC50 was 4.76 µM.
With `Cn1c(CN2CCN(c3cccc(Cl)c3)CC2)nc2ccccc21` the EC50 was 3.34 µM.
With `CCOC(=O)C1(CC2CCCCO2)CCN(Cc2nc(-c3cccs3)oc2C)CC1` (stereo unspecified) the EC50 was “inactive”.
Work on `Cc1cc(/C=C2/C(=O)NN(c3ccccc3)C2=O)c(C)n1-c1ccc(O)cc1` yielded an EC50 of 8.46 µM.
For `CC(=O)Nc1ccc(S(=O)(=O)NC2=C(N3CCN(Cc4ccccc4)CC3)C(=O)c3ccccc3C2=O)cc1`, the EC50 was 1.38 µM and 1.63 µM.
For `CN(C)C(CNC(=O)c1cccc(C(F)(F)F)c1)c1ccco1` (stereo unspecified), the EC50 was > 92.4 µM (inactive).
Work on `CCOc1ccc(S(=O)(=O)Nc2cccc(C(=O)NCC(c3ccccc3)N(C)C)c2)cc1` (stereo unspecified) yielded an EC50 of 7.76 µM.
In the case of `CCNS(=O)(=O)c1ccc(NC(=O)Nc2ccc3c(c2)OCO3)cc1`, the EC50 is reported as 9.34 µM.
With `CCC(=O)OC(Cc1ccccc1)(c1ccccc1)[C@H](C)CN(C)C` (stereo partly specified) the EC50 was 9.98 µM.
`Cc1ccc2cc(C(c3nnnn3Cc3ccccc3)N3CCc4ccccc43)c(=O)[nH]c2c1` (stereo unspecified) was tested, and the EC50 was “inactive”.
`CN(C)CCCN(C(=O)c1ccc(S(=O)(=O)N2CCCCCC2)cc1)c1nc2c(F)cc(F)cc2s1` gave an EC50 of 5.86 µM.
In the case of `COc1ccc(/C=C/C(=O)NC(=S)NCCc2ccc(OC)c(OC)c2)cc1`, the EC50 is reported as 8.72 µM.
With `COc1ccc2[nH]c3c(=O)n(/N=C/[C@H]4C(C)C=C(C)CC4C)c(=O)[nH]c3c2c1` (stereo partly specified) the EC50 was > 92.5 µM (inactive).
In the case of `CCc1ccc2nc(N(CCCN(C)C)C(=O)c3ccc(S(=O)(=O)N4CCc5ccccc5C4)cc3)sc2c1`, the EC50 is reported as “inactive”.
`COC(=O)C1=C(C)N(CCCC(=O)O)C(=O)NC1c1ccccc1OS(=O)(=O)c1ccc([N+](=O)[O-])cc1` (stereo unspecified) was tested, and the EC50 was 5.73 µM.
`CC(=O)NC(CC(=O)NCC(c1ccco1)N(C)C)c1ccccc1` (stereo unspecified) was tested, and the EC50 was 1.06 µM.
Work on `COc1ccc(C(CNC(=O)c2ccc(S(=O)(=O)N(C)C)cc2)N(C)C)cc1` (stereo unspecified) yielded an EC50 of 4.57 µM.
`CN(C)CCCN(C(=O)c1ccc(S(=O)(=O)N2CCc3ccccc3C2)cc1)c1nc2c(F)cc(F)cc2s1` showed an EC50 of 0.856 µM.
`O=C1C=C(c2c(O)ccc3ccccc23)c2ccccc2C1=O` was tested, and the EC50 was 9.82 µM.
For `COc1ccc(C(CNC(=O)c2ccc3c(c2)CCC3)N(C)C)cc1` (stereo unspecified), the EC50 was 0.0459 µM.
Work on `CN(C)C(CNC(=S)Nc1ccccc1)c1cccnc1` (stereo unspecified) yielded an EC50 of 3.47 µM.
`COc1cc(C2C(C#N)=C(N)N(c3sc4c(c3C#N)CCCC4)C3=C2C(=O)CC(C)(C)C3)cc(OC)c1OC` (stereo unspecified) was tested, and the EC50 was “inactive”.
For `O=C(N[C@H]1C/C=C\C[C@H](CC(=O)N(CCO)Cc2ccccc2)C(=O)N[C@H](Cc2c[nH]c3ccccc23)COC1=O)OCC1c2ccccc2-c2ccccc21`, the EC50 was “inactive”.
`Cc1ccc(OCC(=O)Nc2ccc(NC(=O)c3cccs3)cc2)c(C)c1` was tested, and the EC50 was > 10.3 µM (inactive).
Compound `O=S(=O)(c1c(Cl)cc(Br)cc1Cl)N1CCN(C(=S)NC2CC2)CC1` has an EC50 of 5.98 µM.
With `COc1ccc(C(CNC(=O)CCOc2ccccc2)N(C)C)cc1` (stereo unspecified) the EC50 was “inactive”.
`COc1ccc(C(CNC(=O)/C=C/c2c(Cl)nc3ccccn23)N(C)C)cc1` (stereo unspecified) gave an EC50 of 7.62 µM.
`Cc1ccccc1N1CC(O)(c2ccccc2)[N+]2=C1SCC2` (stereo unspecified) was tested, and the EC50 was 2.12 µM.
`COc1ccc(C2Nc3ccccc3C(=O)N2c2ccc(F)cc2)cc1CSc1ccccn1` (stereo unspecified) was tested, and the EC50 was “inactive”.
Work on `CSC(=Nc1ccccc1)N=C(SCc1ccccc1)N(C)C` yielded an EC50 of 7.33 µM.
In the case of `Cc1cccc(OCCC(=O)NCC(c2ccccc2)N(C)C)c1` (stereo unspecified), the EC50 is reported as “inactive”.
In the case of `CCOC(=O)C1(CCc2ccccc2)CCN(Cc2ccco2)CC1`, the EC50 is reported as “inactive”.
Work on `Cc1ccccc1NC(=S)NCC(c1cccnc1)N(C)C` (stereo unspecified) yielded an EC50 of 1.54 µM.
For `CSCCC(/C(O)=C(\C#N)c1nc2ccccc2[nH]1)N1C(=O)c2ccccc2C1=O` (stereo unspecified), the EC50 was 9.92 µM.
`Cc1ccc(Cl)cc1NC(=O)CNCC(c1ccccc1)N(C)C` (stereo unspecified) gave an EC50 of 9.86 µM.
For `COc1ccccc1CN1CCN(C(CC(C)C)c2nnnn2Cc2cccs2)CC1` (stereo unspecified), the EC50 was “inactive”.
`CCOC(=O)C1(CCc2ccccc2)CCN(Cc2ccc(NC(C)=O)cc2)CC1` was tested, and the EC50 was 0.227 µM.
For `Cc1ccc(-n2cc(CNC(C)c3cnn(C)c3)c(-c3ccc(F)cc3)n2)cc1` (stereo unspecified), the EC50 was 0.151 µM.
For `COc1cc(Br)cc(/C=N/NC(=O)Cc2ccc(C(F)(F)F)cc2[N+](=O)[O-])c1O`, the EC50 was “inactive”.
